Key:
[1] = system: PANC-1; assay: Antiproliferative activity against human PANC1 cells after 48 hrs by resazurin dye-based fluorescence assay; type: functional, cell-based; conditions: PANC-1, 48 h
[2] = system: HepG2; assay: Antiproliferative activity against human HepG2 cells after 48 hrs by resazurin dye-based fluorescence assay; type: functional, cell-based; conditions: HepG2, 48 h
[3] = system: CCRF-CEM; assay: Antiproliferative activity against human CCRF-CEM cells after 48 hrs by resazurin dye-based fluorescence assay; type: functional, cell-based
[4] = system: hTERT-BJ; assay: Cytotoxicity against hTERT-BJ cells after 48 hrs by resazurin dye-based fluorescence assay; type: cell-based; conditions: Homo sapiens
[5] = Selectivity index, ratio of IC50 for hTERT-RPE1 cells to IC50 for human PANC1 cells; type: toxicity; conditions: hTERT-RPE1 cells versus PANC1 cells, read-out: Ratio IC50
[6] = Selectivity index, ratio of IC50 for hTERT-BJ cells to IC50 for human PANC1 cells; type: toxicity; conditions: hTERT-BJ cells versus PANC1 cells, read-out: Ratio IC50
[7] = Selectivity index, ratio of IC50 for hTERT-RPE1 cells to IC50 for human HepG2 cells; type: toxicity; conditions: hTERT-RPE1 cells versus HepG2 cells, read-out: Ratio IC50
[8] = Selectivity index, ratio of IC50 for hTERT-BJ cells to IC50 for human HepG2 cells; type: toxicity; conditions: hTERT-BJ cells versus HepG2 cells, read-out: Ratio IC50
[9] = Selectivity index, ratio of IC50 for hTERT-RPE1 cells to IC50 for human CCRF-CEM cells; type: toxicity; conditions: hTERT-RPE1 cells versus CCRF-CEM cells, read-out: Ratio IC50
[10] = Selectivity index, ratio of IC50 for hTERT-BJ cells to IC50 for human CCRF-CEM cells; type: toxicity; conditions: hTERT-BJ cells versus CCRF-CEM cells, read-out: Ratio IC50
[11] = system: HepG2; assay: Induction of apoptosis in human HepG2 cells assessed as increase in caspase-3/7 activity after 24 hrs by Caspase-Glo 3/7 luminescence assay; type: functional, cell-based
[12] = system: PANC-1; assay: Induction of apoptosis in human PANC1 cells assessed as increase in caspase-3/7 activity after 24 hrs by Caspase-Glo 3/7 luminescence assay; type: functional, cell-based
[13] = system: TERT-RPE1; assay: Cytotoxicity against hTERT-RPE1 cells after 48 hrs by resazurin dye-based fluorescence assay; type: cell-based; conditions: Homo sapiens, RPE-1, 48 h
[14] = system: hTERT-BJ; assay: Cytotoxicity against hTERT-BJ cells at 6.25 uM after 48 hrs by resazurin dye-based fluorescence assay relative to control; type: cell-based; conditions: human
[15] = system: hTERT-BJ; assay: Cytotoxicity against hTERT-BJ cells at 12.50 uM after 48 hrs by resazurin dye-based fluorescence assay relative to control; type: cell-based; conditions: human, 12.5 µM
[16] = system: hTERT-BJ; assay: Cytotoxicity against hTERT-BJ cells at 25 uM after 48 hrs by resazurin dye-based fluorescence assay relative to control; type: cell-based; conditions: human
[17] = system: hTERT-BJ; assay: Cytotoxicity against hTERT-BJ cells at 50 uM after 48 hrs by resazurin dye-based fluorescence assay relative to control; type: cell-based; conditions: human
[18] = system: TERT-RPE1; assay: Cytotoxicity against hTERT-RPE1 cells at 6.25 uM after 48 hrs by resazurin dye-based fluorescence assay relative to control; type: cell-based; conditions: human, tert-rpe1, 48 h
[19] = system: TERT-RPE1; assay: Cytotoxicity against hTERT-RPE1 cells at 12.50 uM after 48 hrs by resazurin dye-based fluorescence assay relative to control; type: cell-based; conditions: human, tert-rpe1, 48 h, 12.5 µM
[20] = system: TERT-RPE1; assay: Cytotoxicity against hTERT-RPE1 cells at 25 uM after 48 hrs by resazurin dye-based fluorescence assay relative to control; type: cell-based; conditions: human, tert-rpe1, 48 h
[21] = system: TERT-RPE1; assay: Cytotoxicity against hTERT-RPE1 cells at 50 uM after 48 hrs by resazurin dye-based fluorescence assay relative to control; type: cell-based; conditions: human, tert-rpe1, 48 h

Structure (SMILES) | IC50 [1] [µM] | IC50 [2] [µM] | IC50 [3] [µM] | IC50 [4] [µM] | selectivity ratio [5] | selectivity ratio [6] | selectivity ratio [7] | selectivity ratio [8] | selectivity ratio [9] | selectivity ratio [10] | Activity [11] | IC50 [13] [µM] | Activity [14] [%] | Activity [15] [%] | Activity [16] [%] | Activity [17] [%] | Activity [18] [%] | Activity [19] [%] | Activity [20] [%] | Activity [21] [%] | also measured
O=C(N/N=C/c1cccnc1)c1cc2ccccc2oc1=O | 15.3 | 15.9 | 9.9 | > 50 | > 3.27 | > 3.27 | > 3.14 | > 3.14 | > 5.05 | > 5.05 | Dose-dependent effect | > 50 | 0.21 | 0.97 | 5.22 | 2.6 | 7.46 | 8.28 | 9.89 | 14.75 | Activity [12]: Dose-dependent effect
O=C(N/N=C/c1ccncc1)c1cc2cc(Br)ccc2oc1=O | 25.7 | 4.89 | 6.34 | > 50 | > 1.94 | > 1.94 | > 10.2 | > 10.2 | > 7.88 | > 7.88 | Dose-dependent effect | > 50 | 0.6 | 0.2 | 1.37 | 2.52 | 9.63 | 17.16 | 34.5 | 39.96 | Activity [12]: Dose-dependent effect
CCOc1ccc2nc(Cl)c(/C=N/NC(=O)c3cc4cc([N+](=O)[O-])ccc4oc3=O)cc2c1 | 10.5 | 18.1 | 15.7 | > 50 | > 4.75 | > 4.75 | > 2.77 | > 2.77 | > 3.19 | > 3.19 | Dose-dependent effect | > 50 | 1.58 | 1.38 | 2.13 | 3.33 | 1.74 | 3.92 | 5.6 | 10.48 | Activity [12]: Dose-dependent effect
Cc1noc(NS(=O)(=O)c2ccc(NC(=O)c3cc4cc([N+](=O)[O-])ccc4oc3=O)cc2)c1C | 11.9 | 15 | 14.3 | > 50 | > 4.19 | > 4.19 | > 3.34 | > 3.34 | > 3.49 | > 3.49 |  | > 50 | 2.53 | 4.43 | 7.18 | 10.27 | 1.27 | 2.5 | 4.79 | 4.06 | 
O=C(N/N=C/c1cccnc1)c1cc2cc(Br)ccc2oc1=O | 8.35 | 19 | 3.71 | > 50 | > 5.99 | > 5.99 | > 2.63 | > 2.63 | > 13.5 | > 13.5 |  | > 50 | 0.86 | 0.78 | 1.7 | 2.33 | 6.64 | 12.55 | 25.4 | 34.12 | 
CCOc1ccc(NC(=O)c2cc3cc([N+](=O)[O-])ccc3oc2=O)cc1 | 12.1 | 28.3 | 13.2 | > 50 | > 4.13 | > 4.13 | > 1.77 | > 1.77 | > 3.78 | > 3.78 |  | > 50 | 3.1 | 1.66 | 5.22 | 6.11 | 5.12 | 6.01 | 8.22 | 9.35 | 
CCOc1ccc2nc(Cl)c(/C=N/NC(=O)c3cc4ccc(O)cc4oc3=O)cc2c1 | 0.129 | 19.2 | 17.1 | > 50 | > 388 | > 388 | > 2.6 | > 2.6 | > 2.92 | > 2.92 |  | > 50 | 3.67 | 1.47 | 2.26 | 5.63 | 3.51 | 8.35 | 8.85 | 13.99 | 
